The test system of one assay is tight junction. In words: activity as tight junction regulators. The following applies: for activity as tight junction regulators: fragment alone. From the text: See US 2016/0022760, which is hereby incorporated by reference in its entirety. […] It is believed that an aminopeptidase located within the brush borders of the lumen surface may create larazotide-derived fragments, including fragments missing N-terminal glycine residues.

The subject of assay [1] is intestinal disease symptoms. The following applies: clinical trials, cited from earlier work.

No end group written: not given here.

As to “GVLVQPG [larazotide-derived fragment missing N-terminal glycine residue]”, the “activity as tight junction regulators” value with tight junction is “largely inactive”. In the case of “VLVQPG [larazotide-derived fragment missing N-terminal glycine residues]”, in the assay with tight junction, the “activity as tight junction regulators” value is “largely inactive”. As for GGVLVQPG [Larazotide], in the assay with tight junction (fragments GVLVQPG and VLVQPG mixed with full length larazotide), the “activity as tight junction regulator” value is on record as “completely abolished”. The “activity at reducing intestinal disease symptoms” value in assay [1] (higher doses (e.g., 1 mg and 2 mg doses)) is on record as “attenuation of activity, or no activity at all”. In assay [1] (lower doses (e.g., 0.5 mg dose)), the “benefit at reducing intestinal disease symptoms” value is recorded as “benefit”.

The values above are taken from patent US20210069286A1, “COMPOSITIONS AND METHODS FOR TREATING OR PREVENTING HYPERGLYCEMIA, INSULIN RESISTANCE, AND […] DAMAGE” (9 Meters Biopharma, Inc., priority 2018, published 2021).
